Source: patent publication US9376420B2 (YUHAN CORPORATION, priority 2012, dated 2016)

Biological target: T1, human LXRβ (Homo sapiens, UniProt P55055)
T1 construct: expressed in transfected cells; host or cells: HEK293 cells (ATCC CRL-1573), transient transfection with pFA-hLXRβ/GAL4 and pUAS
T1 sequence (P55055 222-460 limits assumed): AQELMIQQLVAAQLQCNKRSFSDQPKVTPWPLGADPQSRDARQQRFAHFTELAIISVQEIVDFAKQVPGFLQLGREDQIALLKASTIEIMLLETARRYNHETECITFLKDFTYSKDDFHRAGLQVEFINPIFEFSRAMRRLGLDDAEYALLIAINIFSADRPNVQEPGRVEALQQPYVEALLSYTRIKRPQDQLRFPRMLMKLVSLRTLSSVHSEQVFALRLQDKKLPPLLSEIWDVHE
Assay: Assay for Transcriptional Activity of LXRβ (GAL4-hLXRβ LBD luciferase reporter, transient transfection)
Type: cell-based
Conditions: HEK293 cells transfected with pFA-hLXRβ/GAL4 and pUAS, 24 hours; for Emax: fold value in comparison with the control (DMSO-treated group); for EC50: increase of transcriptional activity of LXRβ, average of three independent tests
Procedure, shortened: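 EC50 values, averaged over three independent runs, come from a four-parameter fit of 9-point half-log curves spanning 0.01–50 μM. Luciferase output was read in lysed HEK293 cells 24 h after dosing at 37 °C, following transient transfection with a GAL4-human LXRβ LBD fusion plus GAL4-responsive reporter.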

Structure (SMILES)	Emax [fold]	EC50 [nM]
Cl.OC(C1=NN(c2ccccc2Cl)C(c2ccc(C3=CCNCC3)s2)C1)(C(F)(F)F)C(F)(F)F (stereo not shown) [Example 417, 1-(2-chloro-phenyl)-5-[5-(1,2,3,6-tetrahydropyridin-4-yl)-thiophen-2-yl]-3-[di-(trifluoromethyl)-hydroxy-methyl]-4,5-dihydro-1H-pyrazole hydrochloride]	58	1030
CS(=O)(=O)c1cccc(-c2ccnc(C3CC(C(F)(F)C(F)(F)F)=NN3c3ccc(F)cc3F)c2)c1 (stereo not shown) [Example 177, 1-(2,4-difluoro-phenyl)-5-[4-(3-methanesulfonyl-phenyl)-pyridin-2-yl]-3-pentafluoroethyl-4,5-dihydro-1H-pyrazole]	57	26
CCOc1cccc(-c2ccc(C3CC(C(O)(C(F)(F)F)C(F)(F)F)=NN3c3ccccc3F)cc2)c1 (stereo not shown) [Example 336, 5-(3′-ethoxy-biphenyl-4-yl)-1-(2-fluoro-phenyl)-3-[di-(trifluoromethyl)-hydroxy-methyl]-4,5-dihydro-1H-pyrazole]	72	1470
N#Cc1ncccc1-c1ccc(C2CC(C(O)(C(F)(F)F)C(F)(F)F)=NN2c2ccc(F)cc2F)cc1 (stereo not shown) [Example 380, 5-[4-(2-cyano-pyridin-3-yl)-phenyl)-1-(2,4-difluoro-phenyl)-3-[di-(trifluoromethyl)-hydroxy-methyl]-4,5-dihydro-1H-pyrazole]	38	450
CSc1cccc(-c2ccc(F)c(C3CC(C(F)(F)C(F)(F)F)=NN3c3ccc(F)cc3F)c2)c1 (stereo not shown) [Example 138, 1-(2,4-difluoro-phenyl)-5-(4-fluoro-3′-(methylsulfanyl)biphenyl-3-yl)-3-pentafluoroethyl-4,5-dihydro-1H-pyrazole]	153	501
CSc1ccc(-c2ccc(C3CC(C(O)(C(F)(F)F)C(F)(F)F)=NN3c3ccc(F)cc3F)cc2)cn1 (stereo not shown) [Example 382, 1-(2,4-difluoro-phenyl)-5-[4-(6-methanesulfanyl-pyridin-3-yl)-phenyl]-3-[di-(trifluoromethyl)-hydroxy-methyl]-4,5-dihydro-1H-pyrazole]	44	772
CC(C)S(=O)(=O)N1CCCN(c2ccc(C3CC(C(O)(C(F)(F)F)C(F)(F)F)=NN3c3ccccc3Cl)cc2)CC1 (stereo not shown) [Example 324, 1-(2-chloro-phenyl)-5-[4-(4-isopropylsulfonyl-homopiperazin-1-yl)-phenyl]-3-[di-(trifluoromethyl)-hydroxy-methyl]-4,5-dihydro-1H-pyrazole]	37	3750
COc1ncccc1-c1cccc(C2CC(C(F)(F)C(F)(F)F)=NN2c2ccc(F)cc2F)c1 (stereo not shown) [Example 75, 1-(2,4-difluoro-phenyl)-5-(3-(2-methoxy-pyridin-3-yl)-phenyl)-3-pentafluoroethyl-4,5-dihydro-1H-pyrazole]	63	1120
OC(C1=NN(c2ccccc2Cl)C(c2ccc(-c3ccc(C(F)(F)F)cc3)cc2)C1)(C(F)(F)F)C(F)(F)F (stereo not shown) [Example 247, 1-(2-chloro-phenyl)-5-[4′-(trifluoromethyl)-biphenyl-4-yl]-3-[di-(trifluoromethyl)-hydroxy-methyl]-4,5-dihydro-1H-pyrazole]	33	2030
Cc1ccccc1-c1ccc(C2CC(C(O)(C(F)(F)F)C(F)(F)F)=NN2c2ccccc2Cl)cc1 (stereo not shown) [Example 249, 1-(2-chloro-phenyl)-5-(2′-methyl-biphenyl-4-yl)-3-[di-(trifluoromethyl)-hydroxy-methyl]-4,5-dihydro-1H-pyrazole]	115	784
CS(=O)(=O)c1cccc(-c2ccc(C3CC(C(O)(C(F)(F)F)C(F)(F)F)=NN3c3ccccc3Cl)s2)c1 (stereo not shown) [Example 419, 1-(2-chloro-phenyl)-5-{5-[3-(methylsulfonyl)-phenyl]-thiophen-2-yl}-3-[di-(trifluoromethyl)-hydroxy-methyl]-4,5-dihydro-1H-pyrazole]	82	
CN(CCO)S(=O)(=O)c1ccc(-c2cccc(C3CC(C(F)(F)C(F)(F)F)=NN3c3ccc(F)cc3F)c2)cc1 (stereo not shown) [Example 88, 1-(2,4-difluoro-phenyl)-5-{4′-[(2-hydroxy-ethyl)-methyl-sulfamoyl]-biphenyl-3-yl}-3-pentafluoroethyl-4,5-dihydro-1H-pyrazole]	72	819
O=Cc1ccc(-c2cccc(C3CC(C(F)(F)C(F)(F)F)=NN3c3ccc(F)cc3F)c2)nc1 (stereo not shown) [Example 79, 1-(2,4-difluoro-phenyl)-5-[3-(5-formyl-pyridin-2-yl)-phenyl]-3-pentafluoroethyl-4,5-dihydro-1H-pyrazole]	46	747
CSc1ccc(-c2cccc(C3CC(C(F)(F)C(F)(F)F)=NN3c3ccccc3Cl)c2)cc1 (stereo not shown) [Example 105, 1-(2-chloro-phenyl)-5-(4′-methylsulfanyl-biphenyl-3-yl)-3-pentafluoroethyl-4,5-dihydro-1H-pyrazole]	55	6310
CSc1ccc(-c2ccc(C3CC(C(O)(C(F)(F)F)C(F)(F)F)=NN3c3ccccc3Cl)s2)cn1 (stereo not shown) [Example 415, 1-(2-chloro-phenyl)-5-{5-[6-(methylsulfanyl)-pyridin-3-yl]-thiophen-2-yl}-3-[di-(trifluoromethyl)-hydroxy-methyl]-4,5-dihydro-1H-pyrazole]	100	346
CC(C)(O)C(=O)N1CCN(c2ccc(C3CC(C(O)(C(F)(F)F)C(F)(F)F)=NN3c3ccccc3Cl)cc2)CC1 (stereo not shown) [Example 320, 1-(2-chloro-phenyl)-5-{4-[4-(2-hydroxy-2-methyl-propionyl)-piperazin-1-yl]-phenyl}-3-(di-(trifluoromethyl)-hydroxy-methyl]-4,5-dihydro-1H-pyrazole]	17	1660
CN(C)S(=O)(=O)N1CC=C(c2cccc(C3CC(C(O)(C(F)(F)F)C(F)(F)F)=NN3c3ccccc3Cl)c2)CC1 (stereo not shown) [Example 240, 1-(2-chloro-phenyl)-5-[3-(1-dimethylsulfamoyl-1,2,3,6-tetrahydropyridin-4-yl)-phenyl]-3-[di-(trifluoromethyl)-hydroxy-methyl]-4,5-dihydro-1H-pyrazole]	44	157
CS(=O)(=O)N1CCN(c2ccc(C3CC(C(O)(C(F)(F)F)C(F)(F)F)=NN3c3ccccc3Cl)cn2)CC1 (stereo not shown) [Example 360, 1-(2-chloro-phenyl)-5-[6-(4-methanesulfonyl-piperazin-1-yl)-pyridin-3-yl]-3-[di-(trifluoromethyl)-hydroxy-methyl]-4,5-dihydro-1H-pyrazole]	45	10200
CC(C)(C)OC(=O)N1CC=C(c2cccc(C3CC(C(F)(F)C(F)(F)F)=NN3c3ccc(F)cc3F)c2)CC1 (stereo not shown) [Example 60, 5-[3-(1-BOC-1,2,3,6-tetrahydropyridin-4-yl)-phenyl]-1-(2,4-difluoro-phenyl)-3-pentafluoroethyl-4,5-dihydro-1H-pyrazole]	11	20100
CCS(=O)(=O)N1CCN(c2ccc(C3CC(C(O)(C(F)(F)F)C(F)(F)F)=NN3c3ccccc3Cl)cc2)CC1 (stereo not shown) [Example 313, 1-(2-chloro-phenyl)-5-[4-(4-ethanesulfonyl-piperazin-1-yl)-phenyl]-3-[di-(trifluoromethyl)-hydroxy-methyl]-4,5-dihydro-1H-pyrazole]	56	1120
O=S(=O)(C1CCCCC1)N1CC=C(c2ccc(C3CC(C(O)(C(F)(F)F)C(F)(F)F)=NN3c3ccccc3Cl)cc2)CC1 (stereo not shown) [Example 307, 1-(2-chloro-phenyl)-5-[4-(1-cyclohexanesulfonyl-1,2,3,6-tetrahydropyridin-4-yl)-phenyl]-3-[di-(trifluoromethyl)-hydroxy-methyl]-4,5-dihydro-1H-pyrazole]	52	5470
CS(=O)(=O)N1CCCN(c2ccc(C3CC(C(O)(C(F)(F)F)C(F)(F)F)=NN3c3ccc(F)cc3F)cc2)CC1 (stereo not shown) [Example 410, 1-(2,4-difluoro-phenyl)-5-[4-(4-methanesulfonyl-homopiperazin-1-yl)-phenyl]-3-[di-(trifluoromethyl)-hydroxy-methyl]-4,5-dihydro-1H-pyrazole]	74	154
CC(C)(C)OC(=O)N1CC=C(c2cccc(C3CC(C(O)(C(F)(F)F)C(F)(F)F)=NN3c3ccccc3Cl)c2)CC1 (stereo not shown) [Example 229, 1-(2-chloro-phenyl)-5-[3-(1-BOC-1,2,3,6-tetrahydropyridin-4-yl)-phenyl]-3-[di-(trifluoromethyl)-hydroxy-methyl]-4,5-dihydro-1H-pyrazole]	126	76
COc1ncc(-c2ccc(C3CC(C(O)(C(F)(F)F)C(F)(F)F)=NN3c3ccccc3Cl)cc2)c(OC)n1 (stereo not shown) [Example 280, 1-(2-chloro-phenyl)-5-[4-(2,4-dimethoxy-pyrimidin-5-yl)-phenyl]-3-[di-(trifluoromethyl)-hydroxy-methyl]-4,5-dihydro-1H-pyrazole]	81	556
CS(=O)(=O)c1ccc(-c2cccc(C3CC(C(F)(F)C(F)(F)F)=NN3c3ccc(F)cc3F)c2)cc1 (stereo not shown) [Example 51, 1-(2,4-difluoro-phenyl)-5-(4′-methanesulfonyl-biphenyl-3-yl)-3-pentafluoroethyl-4,5-dihydro-1H-pyrazole]	61	2480
